Results as given in ChEMBL document CHEMBL2150993, “Substituted thiazoles VII. Synthesis and antitumor activity of certain 2-(substituted amino)-4-phenyl-1,3-thiazole analogs” (2012).

Legend:
Format in all cases: functional
Settings in all cases: at 10 µM
SNB-75 = experiment: Growth inhibition of human SNB75 cells after 48 hrs by cell counting analysis
SR = experiment: Growth inhibition of human SR cells after 48 hrs by cell counting analysis
OVCAR-8 = experiment: Growth inhibition of human OVCAR8 cells after 48 hrs by cell counting analysis
HOP-92 = experiment: Growth inhibition of human HOP92 cells after 48 hrs by cell counting analysis
HCT-15 = experiment: Growth inhibition of human HCT15 cells after 48 hrs by cell counting analysis
U-251 = experiment: Growth inhibition of human U251 cells after 48 hrs by cell counting analysis
A549 = experiment: Growth inhibition of human A549 cells after 48 hrs by cell counting analysis
MDA-MB-435 = experiment: Growth inhibition of human MDA-MB-435 cells after 48 hrs by cell counting analysis
KM12 = experiment: Growth inhibition of human KM12 cells after 48 hrs by cell counting analysis
CAKI-1 = experiment: Growth inhibition of human Caki1 cells after 48 hrs by cell counting analysis
LOX IMVI = experiment: Growth inhibition of human LOXIMVI cells after 48 hrs by cell counting analysis
SK-MEL-5 = experiment: Growth inhibition of human SK-MEL-5 cells after 48 hrs by cell counting analysis
OVCAR-3 = experiment: Growth inhibition of human OVCAR3 cells after 48 hrs by cell counting analysis
UO-31 = experiment: Growth inhibition of human UO31 cells after 48 hrs by cell counting analysis
Malme-3M = experiment: Growth inhibition of human MALME-3M cells after 48 hrs by cell counting analysis
RXF 393 = experiment: Growth inhibition of human RXF393 cells after 48 hrs by cell counting analysis
MDA-MB-231 = experiment: Growth inhibition of human MDA-MB-231 cells after 48 hrs by cell counting analysis
SF-539 = experiment: Growth inhibition of human SF539 cells after 48 hrs by cell counting analysis
HL-60 = experiment: Growth inhibition of human HL60 cells after 48 hrs by cell counting analysis
RPMI-8226 = experiment: Growth inhibition of human RPMI8226 cells after 48 hrs by cell counting analysis
MDA-MB-468 = experiment: Growth inhibition of human MDA-MB-468 cells after 48 hrs by cell counting analysis
OVCAR-5 = experiment: Growth inhibition of human OVCAR5 cells after 48 hrs by cell counting analysis
NCI-H23 = experiment: Growth inhibition of human NCI-H23 cells after 48 hrs by cell counting analysis
OVCAR-4 = experiment: Growth inhibition of human OVCAR4 cells after 48 hrs by cell counting analysis
MOLT-4 = experiment: Growth inhibition of human MOLT4 cells after 48 hrs by cell counting analysis
HCC 2998 = experiment: Growth inhibition of human HCC2998 cells after 48 hrs by cell counting analysis
ACHN = experiment: Growth inhibition of human ACHN cells after 48 hrs by cell counting analysis
PC-3 = experiment: Growth inhibition of human PC3 cells after 48 hrs by cell counting analysis
[1] = Growth inhibition of human NCI-ADR-RES cells after 48 hrs by cell counting analysis
HCT-116 = experiment: Growth inhibition of human HCT116 cells after 48 hrs by cell counting analysis
SK-OV-3 = experiment: Growth inhibition of human SKOV3 cells after 48 hrs by cell counting analysis
TK-10 = experiment: Growth inhibition of human TK10 cells after 48 hrs by cell counting analysis
SF-268 = experiment: Growth inhibition of human SF268 cells after 48 hrs by cell counting analysis
EKVX = experiment: Growth inhibition of human EKVX cells after 48 hrs by cell counting analysis
T47D = experiment: Growth inhibition of human T47D cells after 48 hrs by cell counting analysis
SK-MEL-2 = experiment: Growth inhibition of human SK-MEL-2 cells after 48 hrs by cell counting analysis
IGROV-1 = experiment: Growth inhibition of human IGROV1 cells after 48 hrs by cell counting analysis
UACC-257 = experiment: Growth inhibition of human UACC257 cells after 48 hrs by cell counting analysis
CCRF-CEM = experiment: Growth inhibition of human CCRF-CEM cells after 48 hrs by cell counting analysis
MCF7 = experiment: Growth inhibition of human MCF7 cells after 48 hrs by cell counting analysis
SNB-19 = experiment: Growth inhibition of human SNB19 cells after 48 hrs by cell counting analysis
SN12C = experiment: Growth inhibition of human SN12C cells after 48 hrs by cell counting analysis
[2] = Growth inhibition of human NCI-322M cells after 48 hrs by cell counting analysis
BT-549 = experiment: Growth inhibition of human BT549 cells after 48 hrs by cell counting analysis
M14 = experiment: Growth inhibition of human M14 cells after 48 hrs by cell counting analysis
HOP-62 = experiment: Growth inhibition of human HOP62 cells after 48 hrs by cell counting analysis
K562 = experiment: Growth inhibition of human K562 cells after 48 hrs by cell counting analysis
UACC-62 = experiment: Growth inhibition of human UACC62 cells after 48 hrs by cell counting analysis
SK-MEL-28 = experiment: Growth inhibition of human SK-MEL-28 cells after 48 hrs by cell counting analysis
SF-295 = experiment: Growth inhibition of human SF295 cells after 48 hrs by cell counting analysis
NCI-H522 = experiment: Growth inhibition of human NCI-H522 cells after 48 hrs by cell counting analysis
HT-29 = experiment: Growth inhibition of human HT-29 cells after 48 hrs by cell counting analysis
NCI-H226 = experiment: Growth inhibition of human NCI-H226 cells after 48 hrs by cell counting analysis
SW-620 = experiment: Growth inhibition of human SW620 cells after 48 hrs by cell counting analysis

Measured: growth inhibition (GI)

Cc1ccc(-c2csc(NC(=O)CN3CCN(C)CC3)n2)cc1
42.2%: SNB-75
34.2%: MDA-MB-231
13.4%: MOLT-4
12.8%: BT-549
<10%: SR | OVCAR-8 | HOP-92 | HCT-15 | U-251 | A549 | MDA-MB-435 | KM12 | LOX IMVI | SK-MEL-5 | OVCAR-3 | Malme-3M | RXF 393 | SF-539 | HL-60 | RPMI-8226 | MDA-MB-468 | OVCAR-5 | NCI-H23 | OVCAR-4 | HCC 2998 | ACHN | PC-3 | [1] | HCT-116 | SK-OV-3 | TK-10 | SF-268 | EKVX | T47D | SK-MEL-2 | IGROV-1 | UACC-257 | CCRF-CEM | SNB-19 | [2] | M14 | HOP-62 | UACC-62 | SK-MEL-28 | SF-295 | NCI-H522 | HT-29 | NCI-H226 | SW-620
12.7%: MCF7
12%: CAKI-1
10.4%: SN12C
11.4%: K562
19.9%: UO-31

Cc1ccc(-c2csc(NC(=O)CN3CCN(c4ccccc4)CC3)n2)cc1
20.8%: T47D
32.5%: EKVX
48.2%: UO-31
21%: [1]
31.1%: PC-3
<10%: SR | OVCAR-8 | HOP-92 | U-251 | KM12 | OVCAR-3 | Malme-3M | RXF 393 | MDA-MB-231 | SF-539 | HL-60 | RPMI-8226 | OVCAR-5 | ACHN | HCT-116 | SK-OV-3 | TK-10 | SK-MEL-2 | UACC-257 | SNB-19 | BT-549 | M14 | HOP-62 | K562 | SK-MEL-28 | NCI-H522 | HT-29 | NCI-H226 | SW-620
33.8%: IGROV-1
23.1%: MDA-MB-468
24.6%: CAKI-1
28.1%: OVCAR-4
13.4%: CCRF-CEM
17.2%: LOX IMVI
10.6%: HCT-15
27.3%: SF-295
27.6%: SK-MEL-5
17.6%: MDA-MB-435
21.4%: [2]
12.1%: SNB-75
23.6%: UACC-62
17%: SN12C
15.2%: HCC 2998
18.9%: NCI-H23
13.9%: SF-268
23.7%: MOLT-4
31.4%: A549
20.9%: MCF7

O=C(CN1CCN(c2ccccc2)CC1)Nc1nc(-c2ccc(Cl)cc2)cs1
11.7%: SK-MEL-5
12.7%: HOP-62
21.1%: PC-3
10.4%: IGROV-1
34.4%: UO-31
16.4%: HCT-116
<10%: SNB-75 | SR | OVCAR-8 | HCT-15 | U-251 | A549 | MDA-MB-435 | KM12 | CAKI-1 | LOX IMVI | OVCAR-3 | Malme-3M | RXF 393 | MDA-MB-231 | SF-539 | HL-60 | RPMI-8226 | MDA-MB-468 | OVCAR-5 | NCI-H23 | OVCAR-4 | MOLT-4 | HCC 2998 | ACHN | [1] | SK-OV-3 | TK-10 | SF-268 | EKVX | SK-MEL-2 | UACC-257 | CCRF-CEM | MCF7 | SNB-19 | SN12C | [2] | BT-549 | M14 | K562 | SK-MEL-28 | SF-295 | NCI-H522 | HT-29 | NCI-H226 | SW-620
60.2%: HOP-92
19%: T47D
20.3%: UACC-62
